HELM strings list units from the 5' end as sugar, base in round brackets, then linkage (d deoxyribose, r ribose, m 2'-O-methyl, p phosphodiester). Strings are as the collection lists them; they lack the last nucleoside at the 3' end of the tested compound. [moe] = 2'-O-(2-methoxyethyl) (MOE); [sp] = phosphorothioate linkage; [m5C] = 5-methylcytosine
Each substance was assayed against SMN2 (assay: mouse, dose not given). Conditions: ASO.

Substance	3 h FOB score [score 0-7]
RNA1{[moe]([m5C])[sp].[moe](T)[sp].[moe](T)p.[moe](T)p.[moe]([m5C])p.[moe](A)p.[moe](T)[sp].[moe](A)[sp].[moe](A)[sp].[moe](T)[sp].[moe](G)[sp].[moe]([m5C])[sp].[moe](T)[sp].[moe](G)[sp].[moe](G)}$$$$ (last 3' nucleoside missing)	0
RNA1{[moe]([m5C])[sp].[moe](T)p.[moe](T)p.[moe](T)[sp].[moe]([m5C])[sp].[moe](A)[sp].[moe](T)[sp].[moe](A)[sp].[moe](A)[sp].[moe](T)[sp].[moe](G)[sp].[moe]([m5C])p.[moe](T)p.[moe](G)[sp].[moe](G)}$$$$ (last 3' nucleoside missing)	0.25
RNA1{[moe]([m5C])[sp].[moe](T)p.[moe](T)p.[moe](T)p.[moe]([m5C])[sp].[moe](A)[sp].[moe](T)[sp].[moe](A)[sp].[moe](A)[sp].[moe](T)[sp].[moe](G)[sp].[moe]([m5C])p.[moe](T)p.[moe](G)[sp].[moe](G)}$$$$ (last 3' nucleoside missing)	0
RNA1{[moe]([m5C])[sp].[moe](T)p.[moe](T)p.[moe](T)p.[moe]([m5C])[sp].[moe](A)[sp].[moe](T)[sp].[moe](A)[sp].[moe](A)[sp].[moe](T)[sp].[moe](G)p.[moe]([m5C])p.[moe](T)p.[moe](G)[sp].[moe](G)}$$$$ (last 3' nucleoside missing)	0
RNA1{[moe]([m5C])[sp].[moe](T)p.[moe](T)p.[moe](T)p.[moe]([m5C])p.[moe](A)[sp].[moe](T)[sp].[moe](A)[sp].[moe](A)[sp].[moe](T)[sp].[moe](G)p.[moe]([m5C])p.[moe](T)p.[moe](G)[sp].[moe](G)}$$$$ (last 3' nucleoside missing)	0
RNA1{[moe]([m5C])p.[moe](T)[sp].[moe]([m5C])[sp].[moe](A)[sp].[moe]([m5C])[sp].[moe](T)[sp].[moe](T)[sp].[moe](T)[sp].[moe]([m5C])[sp].[moe](A)[sp].[moe](T)[sp].[moe](A)[sp].[moe](A)[sp].[moe](T)[sp].[moe](G)[sp].[moe]([m5C])[sp].[moe](T)[sp].[moe](G)}$$$$ (last 3' nucleoside missing)	3.5

Reference: the OligoGym collection
